Here are results for four compounds from PMC8550792, “Evolution of kinase polypharmacology across HSP90 drug discovery” (Cell Chemical Biology, 2021).

What all share (experiment): biochemical
Common to all, as to type: biochemical

The target of experiment [1] is T1, 382 unique human kinases (Homo sapiens, UniProt Q9UPZ9).
T1 construct: purchased Reaction Biology (HotSpot contract assay)
T1 sequence (Q9UPZ9 1-632): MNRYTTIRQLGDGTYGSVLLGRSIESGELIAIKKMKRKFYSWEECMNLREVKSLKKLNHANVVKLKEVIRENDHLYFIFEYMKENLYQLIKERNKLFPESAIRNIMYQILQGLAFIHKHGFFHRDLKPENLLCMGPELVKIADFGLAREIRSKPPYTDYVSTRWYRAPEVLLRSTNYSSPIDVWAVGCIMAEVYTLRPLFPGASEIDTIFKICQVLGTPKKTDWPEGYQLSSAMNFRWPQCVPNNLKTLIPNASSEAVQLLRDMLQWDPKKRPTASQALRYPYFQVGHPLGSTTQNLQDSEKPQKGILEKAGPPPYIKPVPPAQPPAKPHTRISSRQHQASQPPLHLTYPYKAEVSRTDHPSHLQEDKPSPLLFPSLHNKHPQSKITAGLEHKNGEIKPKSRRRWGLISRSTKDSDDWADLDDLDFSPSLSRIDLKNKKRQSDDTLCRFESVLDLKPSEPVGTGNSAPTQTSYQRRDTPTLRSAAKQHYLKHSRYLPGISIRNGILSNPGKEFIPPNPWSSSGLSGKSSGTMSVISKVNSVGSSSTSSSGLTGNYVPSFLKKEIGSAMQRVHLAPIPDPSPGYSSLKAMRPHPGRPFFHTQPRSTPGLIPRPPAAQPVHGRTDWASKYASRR
The conditions noted are these: kinase LCK2/ICK, compound 10 uM; for remaining activity at 10 µM: read-out: % Enzyme Activity (relative to DMSO controls).

The target of experiment [2] is T2, 382 unique human kinases (Homo sapiens, UniProt P21802, K659N).
T2 construct: purchased Reaction Biology (HotSpot contract assay)
The settings on record: FGFR2 (K659N), 10 uM; for remaining activity at 10 µM: read-out: % Enzyme Activity (relative to DMSO controls).

The target of experiment [3] is T3, 382 unique human kinases (Homo sapiens, UniProt P49674).
T3 construct: purchased Reaction Biology (HotSpot contract assay)
The conditions noted are these: CK1epsilon, 10 uM; for remaining activity at 10 µM: read-out: % Enzyme Activity (relative to DMSO controls).

Experiment [4] concerns the target T4, 382 unique human kinases (Homo sapiens, UniProt P00533, L858R/T790M).
T4 construct: purchased Reaction Biology (HotSpot contract assay)
The conditions noted are these: EGFR (L858R, T790M), 10 uM; for remaining activity at 10 µM: read-out: % Enzyme Activity (relative to DMSO controls).

The target in experiment [5] is T5, 382 unique human kinases (Homo sapiens, UniProt Q92918).
T5 construct: purchased Reaction Biology (HotSpot contract assay)
The conditions noted are these: kinase HPK1/MAP4K1, compound 10 uM; for remaining activity at 10 µM: read-out: % Enzyme Activity (relative to DMSO controls).

The target of experiment [6] is T6, 382 unique human kinases (Homo sapiens, UniProt Q9Y4K4).
T6 construct: purchased Reaction Biology (HotSpot contract assay)
The conditions noted are these: kinase KHS/MAP4K5, compound 10 uM; for remaining activity at 10 µM: read-out: % Enzyme Activity (relative to DMSO controls).

Experiment [7] has as its target T7, 382 unique human kinases (Homo sapiens, UniProt P08922, G2032R).
T7 construct: purchased Reaction Biology (HotSpot contract assay)
The conditions noted are these: ROS1 (G2032R), 10 uM; for remaining activity at 10 µM: read-out: % Enzyme Activity (relative to DMSO controls).

In experiment [8] the target is T8, 382 unique human kinases (Homo sapiens, UniProt P08581, Y1230D).
T8 construct: purchased Reaction Biology (HotSpot contract assay)
The settings on record: c-MET (Y1230D), compound at 10 uM, duplicate values; for remaining activity at 10 µM: read-out: % Enzyme Activity (relative to DMSO controls).

For experiment [9], the target named is T9, 382 unique human kinases (Homo sapiens, UniProt Q9Y6M4).
T9 construct: purchased Reaction Biology (HotSpot contract assay)
The conditions noted are these: kinase CK1g3, compound 10 uM; for remaining activity at 10 µM: read-out: % Enzyme Activity (relative to DMSO controls).

For experiment [10], the target named is T10, 382 unique human kinases (Homo sapiens, UniProt P22455, V550L).
T10 construct: purchased Reaction Biology (HotSpot contract assay)
The conditions noted are these: FGFR4 (V550L), 10 uM; for remaining activity at 10 µM: read-out: % Enzyme Activity (relative to DMSO controls).

Experiment [11] has as its target T11, 382 unique human kinases (Homo sapiens, UniProt P00519, F317I).
T11 construct: purchased Reaction Biology (HotSpot contract assay)
The settings on record: ABL1 (F317I), [ATP] 5 µM, compound 10 uM; for remaining activity at 10 µM: read-out: % Enzyme Activity (relative to DMSO controls).

Experiment [12] addresses 382 unique human kinases (Homo sapiens, UniProt Q9Y463). The settings on record: DYRK1B, [ATP] 20 µM, compound 10 uM; for remaining activity at 10 µM: read-out: % Enzyme Activity (relative to DMSO controls).
Experiment [13] deals with T12, 382 unique human kinases (Homo sapiens, UniProt P07333).
T12 construct: purchased Reaction Biology (HotSpot contract assay)
The settings on record: FMS, [ATP] 100 µM, compound 10 uM; for remaining activity at 10 µM: read-out: % Enzyme Activity (relative to DMSO controls).

Experiment [14] addresses T13, 382 unique human kinases (Homo sapiens, UniProt Q06418).
T13 construct: purchased Reaction Biology (HotSpot contract assay)
T13 sequence (Q06418 41-890): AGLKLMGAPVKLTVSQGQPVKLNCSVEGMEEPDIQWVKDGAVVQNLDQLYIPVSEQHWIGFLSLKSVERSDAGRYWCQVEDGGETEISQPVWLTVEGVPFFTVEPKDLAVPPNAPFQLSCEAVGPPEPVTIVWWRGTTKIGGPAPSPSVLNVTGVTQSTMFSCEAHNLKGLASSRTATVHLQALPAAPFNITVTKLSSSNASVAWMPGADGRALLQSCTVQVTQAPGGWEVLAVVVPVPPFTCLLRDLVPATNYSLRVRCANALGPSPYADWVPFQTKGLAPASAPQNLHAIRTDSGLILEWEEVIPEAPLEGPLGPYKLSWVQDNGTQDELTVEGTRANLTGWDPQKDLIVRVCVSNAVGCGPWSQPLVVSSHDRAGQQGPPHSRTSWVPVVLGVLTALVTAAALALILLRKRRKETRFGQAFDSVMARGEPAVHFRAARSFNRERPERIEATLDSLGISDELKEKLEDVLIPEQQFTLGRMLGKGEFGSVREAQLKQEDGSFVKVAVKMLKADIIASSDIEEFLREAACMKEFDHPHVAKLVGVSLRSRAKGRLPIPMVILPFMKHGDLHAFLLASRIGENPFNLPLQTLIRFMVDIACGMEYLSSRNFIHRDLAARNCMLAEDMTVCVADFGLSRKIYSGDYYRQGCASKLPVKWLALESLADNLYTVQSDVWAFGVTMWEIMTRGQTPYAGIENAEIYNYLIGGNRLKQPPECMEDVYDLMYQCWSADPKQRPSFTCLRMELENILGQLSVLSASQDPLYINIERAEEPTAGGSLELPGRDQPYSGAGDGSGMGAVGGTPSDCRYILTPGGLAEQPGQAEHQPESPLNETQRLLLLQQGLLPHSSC
The settings on record: TYRO3/SKY, 10 uM; for remaining activity at 10 µM: read-out: % Enzyme Activity (relative to DMSO controls).

The target of experiment [15] is T14, 382 unique human kinases (Homo sapiens, UniProt Q86V86).
T14 construct: purchased Reaction Biology (HotSpot contract assay)
The conditions noted are these: PIM3, [ATP] 20 µM.

Experiment [16] has as its target T15, 382 unique human kinases (Homo sapiens, UniProt P37023).
T15 construct: purchased Reaction Biology (HotSpot contract assay)
The conditions noted are these: ALK1/ACVRL1, 10 uM; for remaining activity at 10 µM: read-out: % Enzyme Activity (relative to DMSO controls).

Experiment [17] addresses T16, 382 unique human kinases (Homo sapiens, UniProt Q13464).
T16 construct: purchased Reaction Biology (HotSpot contract assay)
The conditions noted are these: ROCK1, 10 uM; for remaining activity at 10 µM: read-out: % Enzyme Activity (relative to DMSO controls).

[18] abbreviates: compound 10 uM, read-out: % Enzyme Activity (relative to DMSO controls).

T10 sequence (P22455 22-802 V550L): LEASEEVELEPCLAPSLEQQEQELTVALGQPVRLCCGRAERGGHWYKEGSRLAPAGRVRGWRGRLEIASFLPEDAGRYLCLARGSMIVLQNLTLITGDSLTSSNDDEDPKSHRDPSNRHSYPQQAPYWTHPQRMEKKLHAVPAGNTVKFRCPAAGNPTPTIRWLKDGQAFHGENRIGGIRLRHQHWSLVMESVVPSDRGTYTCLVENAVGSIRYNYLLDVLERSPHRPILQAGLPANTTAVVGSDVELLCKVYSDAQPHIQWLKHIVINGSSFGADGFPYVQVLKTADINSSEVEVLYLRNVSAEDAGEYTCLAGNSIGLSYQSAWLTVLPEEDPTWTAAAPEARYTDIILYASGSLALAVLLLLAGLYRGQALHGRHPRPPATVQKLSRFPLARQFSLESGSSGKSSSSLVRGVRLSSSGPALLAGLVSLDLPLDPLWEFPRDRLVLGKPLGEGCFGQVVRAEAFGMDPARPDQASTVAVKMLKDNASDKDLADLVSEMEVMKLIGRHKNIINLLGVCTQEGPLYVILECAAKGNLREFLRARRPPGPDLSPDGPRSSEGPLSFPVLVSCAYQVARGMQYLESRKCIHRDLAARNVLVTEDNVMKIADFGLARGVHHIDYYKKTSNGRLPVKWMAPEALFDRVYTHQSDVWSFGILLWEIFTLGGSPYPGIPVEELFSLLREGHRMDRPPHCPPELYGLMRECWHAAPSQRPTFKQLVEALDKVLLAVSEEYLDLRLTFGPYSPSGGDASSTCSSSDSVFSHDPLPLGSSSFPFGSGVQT
T12 sequence (P07333 20-972): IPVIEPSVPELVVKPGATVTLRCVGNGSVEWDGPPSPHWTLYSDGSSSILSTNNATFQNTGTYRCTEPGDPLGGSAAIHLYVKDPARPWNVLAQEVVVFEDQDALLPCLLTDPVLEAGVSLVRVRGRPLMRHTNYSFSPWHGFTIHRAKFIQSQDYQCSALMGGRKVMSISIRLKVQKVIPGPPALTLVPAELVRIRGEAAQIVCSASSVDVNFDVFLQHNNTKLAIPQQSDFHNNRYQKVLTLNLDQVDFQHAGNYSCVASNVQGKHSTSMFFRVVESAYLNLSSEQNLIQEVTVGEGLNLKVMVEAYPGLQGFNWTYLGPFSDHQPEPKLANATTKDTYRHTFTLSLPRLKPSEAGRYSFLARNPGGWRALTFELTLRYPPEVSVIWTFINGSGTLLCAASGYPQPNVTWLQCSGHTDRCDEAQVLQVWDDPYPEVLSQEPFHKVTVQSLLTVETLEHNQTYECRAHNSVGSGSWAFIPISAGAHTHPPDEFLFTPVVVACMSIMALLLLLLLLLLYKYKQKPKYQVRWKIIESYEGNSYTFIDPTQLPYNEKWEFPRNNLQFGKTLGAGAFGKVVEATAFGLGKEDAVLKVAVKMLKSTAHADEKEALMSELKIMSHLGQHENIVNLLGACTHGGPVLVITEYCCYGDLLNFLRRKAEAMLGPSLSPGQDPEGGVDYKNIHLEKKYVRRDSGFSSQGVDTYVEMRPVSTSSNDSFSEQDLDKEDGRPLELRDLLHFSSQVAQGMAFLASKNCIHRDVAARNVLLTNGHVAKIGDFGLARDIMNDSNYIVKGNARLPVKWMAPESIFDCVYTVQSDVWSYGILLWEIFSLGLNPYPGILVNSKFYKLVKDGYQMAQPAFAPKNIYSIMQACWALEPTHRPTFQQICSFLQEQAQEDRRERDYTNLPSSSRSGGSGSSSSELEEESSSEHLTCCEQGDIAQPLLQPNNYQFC
T9 sequence (Q9Y6M4 whole entry): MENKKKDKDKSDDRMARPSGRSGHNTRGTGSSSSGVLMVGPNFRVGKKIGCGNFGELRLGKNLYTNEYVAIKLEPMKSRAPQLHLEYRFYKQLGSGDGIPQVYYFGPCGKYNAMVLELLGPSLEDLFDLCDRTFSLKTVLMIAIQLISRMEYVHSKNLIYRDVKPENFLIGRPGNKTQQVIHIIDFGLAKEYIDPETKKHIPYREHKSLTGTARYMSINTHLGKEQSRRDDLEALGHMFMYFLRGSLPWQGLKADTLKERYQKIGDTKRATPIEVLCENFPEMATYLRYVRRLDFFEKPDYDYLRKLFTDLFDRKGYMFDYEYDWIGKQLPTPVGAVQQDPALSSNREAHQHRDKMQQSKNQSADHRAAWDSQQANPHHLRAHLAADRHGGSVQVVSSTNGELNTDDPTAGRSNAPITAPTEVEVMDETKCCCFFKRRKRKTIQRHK
T3 sequence (P49674 whole entry): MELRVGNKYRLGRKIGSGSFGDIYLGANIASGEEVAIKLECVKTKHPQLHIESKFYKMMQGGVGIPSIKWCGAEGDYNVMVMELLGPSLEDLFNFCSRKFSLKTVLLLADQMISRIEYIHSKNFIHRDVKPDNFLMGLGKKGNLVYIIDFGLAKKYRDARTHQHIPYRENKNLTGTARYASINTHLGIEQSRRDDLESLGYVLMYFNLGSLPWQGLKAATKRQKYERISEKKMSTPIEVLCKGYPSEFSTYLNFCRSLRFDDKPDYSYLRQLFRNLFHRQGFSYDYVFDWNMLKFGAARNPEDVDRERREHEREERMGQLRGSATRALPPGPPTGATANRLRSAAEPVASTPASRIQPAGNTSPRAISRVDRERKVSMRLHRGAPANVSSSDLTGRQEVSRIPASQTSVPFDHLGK
T7 sequence (P08922 28-2347 G2032R): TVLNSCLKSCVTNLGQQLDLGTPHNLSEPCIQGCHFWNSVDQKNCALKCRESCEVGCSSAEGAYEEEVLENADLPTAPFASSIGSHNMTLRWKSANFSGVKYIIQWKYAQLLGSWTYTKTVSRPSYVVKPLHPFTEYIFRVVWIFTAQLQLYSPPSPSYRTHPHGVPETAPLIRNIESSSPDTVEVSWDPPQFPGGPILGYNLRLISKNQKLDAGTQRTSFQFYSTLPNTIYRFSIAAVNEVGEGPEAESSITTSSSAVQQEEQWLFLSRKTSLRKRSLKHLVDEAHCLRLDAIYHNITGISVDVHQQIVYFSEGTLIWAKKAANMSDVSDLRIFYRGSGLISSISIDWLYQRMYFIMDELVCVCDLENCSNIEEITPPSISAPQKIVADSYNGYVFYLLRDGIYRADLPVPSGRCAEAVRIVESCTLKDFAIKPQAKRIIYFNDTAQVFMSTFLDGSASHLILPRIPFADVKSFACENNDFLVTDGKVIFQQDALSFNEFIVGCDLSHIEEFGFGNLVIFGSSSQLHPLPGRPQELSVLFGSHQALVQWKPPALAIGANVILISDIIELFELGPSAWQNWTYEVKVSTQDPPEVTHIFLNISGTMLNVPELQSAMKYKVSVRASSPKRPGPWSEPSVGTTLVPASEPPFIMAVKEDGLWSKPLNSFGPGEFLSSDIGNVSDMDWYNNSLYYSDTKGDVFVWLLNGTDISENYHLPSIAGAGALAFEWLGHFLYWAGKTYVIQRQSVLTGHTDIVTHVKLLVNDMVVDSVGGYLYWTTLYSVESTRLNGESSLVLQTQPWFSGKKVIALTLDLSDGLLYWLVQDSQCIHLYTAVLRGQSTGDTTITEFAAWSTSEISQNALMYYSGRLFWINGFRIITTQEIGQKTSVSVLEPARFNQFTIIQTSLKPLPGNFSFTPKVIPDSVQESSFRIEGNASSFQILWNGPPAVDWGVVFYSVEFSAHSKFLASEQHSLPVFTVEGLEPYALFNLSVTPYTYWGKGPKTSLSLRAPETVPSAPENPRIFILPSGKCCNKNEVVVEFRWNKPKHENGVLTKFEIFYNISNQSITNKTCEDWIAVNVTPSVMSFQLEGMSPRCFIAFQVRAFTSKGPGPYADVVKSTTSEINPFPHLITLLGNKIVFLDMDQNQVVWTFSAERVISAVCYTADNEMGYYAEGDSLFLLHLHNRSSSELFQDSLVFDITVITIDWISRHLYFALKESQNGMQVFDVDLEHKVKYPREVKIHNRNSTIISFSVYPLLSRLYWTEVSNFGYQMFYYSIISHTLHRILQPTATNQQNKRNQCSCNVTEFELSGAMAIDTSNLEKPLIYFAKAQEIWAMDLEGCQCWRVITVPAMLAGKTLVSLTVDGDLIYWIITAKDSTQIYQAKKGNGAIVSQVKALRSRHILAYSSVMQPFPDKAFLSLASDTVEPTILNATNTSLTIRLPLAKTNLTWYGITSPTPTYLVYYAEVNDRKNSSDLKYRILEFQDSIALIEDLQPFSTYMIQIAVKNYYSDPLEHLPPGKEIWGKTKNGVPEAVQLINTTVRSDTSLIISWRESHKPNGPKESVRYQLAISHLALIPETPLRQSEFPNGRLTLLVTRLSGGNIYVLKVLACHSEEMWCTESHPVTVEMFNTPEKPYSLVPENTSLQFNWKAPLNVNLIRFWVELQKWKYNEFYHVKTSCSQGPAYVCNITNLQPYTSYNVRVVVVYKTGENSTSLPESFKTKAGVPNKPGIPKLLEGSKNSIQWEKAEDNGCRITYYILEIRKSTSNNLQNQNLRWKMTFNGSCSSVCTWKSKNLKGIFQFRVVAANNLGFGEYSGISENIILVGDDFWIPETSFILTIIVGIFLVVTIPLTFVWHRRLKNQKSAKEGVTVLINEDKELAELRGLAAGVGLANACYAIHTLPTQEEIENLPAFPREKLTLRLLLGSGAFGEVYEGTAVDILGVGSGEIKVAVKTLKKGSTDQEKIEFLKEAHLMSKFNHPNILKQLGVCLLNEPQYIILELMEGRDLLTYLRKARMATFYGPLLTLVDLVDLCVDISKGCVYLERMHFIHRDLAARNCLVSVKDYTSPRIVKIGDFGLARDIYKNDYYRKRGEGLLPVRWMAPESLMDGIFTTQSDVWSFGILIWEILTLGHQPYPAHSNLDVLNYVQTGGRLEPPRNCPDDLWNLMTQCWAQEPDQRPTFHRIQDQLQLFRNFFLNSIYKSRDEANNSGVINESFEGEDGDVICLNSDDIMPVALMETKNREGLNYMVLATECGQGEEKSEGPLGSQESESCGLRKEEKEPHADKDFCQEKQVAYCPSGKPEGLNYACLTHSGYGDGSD

In the case of `CC(C)c1cc(-c2n[nH]c(=O)n2-c2ccc3c(ccn3C)c2)c(O)cc1O` [Ganetespib (STA9090)], the remaining activity at 10 µM on 382 unique human kinases [1] turned out to be 90.4%; on 382 unique human kinases [2], 70.6%; at 382 unique human kinases [3], 73.4%; on 382 unique human kinases [4], 91.5%; on 382 unique human kinases [5], 97.5%; at 382 unique human kinases [6] it was 80.6%. Also, the remaining activity at 10 µM worked out at 66.8% on 382 unique human kinases [7], 109% on 382 unique human kinases [8], 82% on 382 unique human kinases [9] and 76.1% on 382 unique human kinases [10].
In the case of `CC(C)c1cc(-c2n[nH]c(=O)n2-c2ccc3c(ccn3C)c2)c(O)cc1O` [Ganetespib], the remaining activity at 10 µM worked out at 2.88% on 382 unique human kinases [11]; 45% on 382 unique human kinases [12]; 23.5% on 382 unique human kinases [13]; 102% on 382 unique human kinases [14]; 14.3% at 382 unique human kinases [15] (setting [18]); 95.6% at 382 unique human kinases [16]. Besides, the remaining activity at 10 µM on 382 unique human kinases [17] was 91.4%. Moreover, the remaining activity at 1 µM on 382 unique human kinases [15] (compound 1 uM, read-out: % Enzyme Activity (relative to DMSO controls)) was found to be 61.1%.
On to `CCNC(=O)c1noc(-c2cc(C(C)C)c(O)cc2O)c1-c1ccc(CN2CCOCC2)cc1` [Luminespib (AUY-922)], for which the “% Enzyme Activity (relative to DMSO controls)” value on 382 unique human kinases [1] is 109.49%; at 382 unique human kinases [2], 101.12%; on 382 unique human kinases [3], 103.86%; at 382 unique human kinases [4], 61.22%; on 382 unique human kinases [5], 120.08%; at 382 unique human kinases [6], 91.62%. Further, the “% Enzyme Activity (relative to DMSO controls)” value is 106.59% on 382 unique human kinases [7], 109.18% at 382 unique human kinases [8], 98.54% at 382 unique human kinases [9] and 101.11% on 382 unique human kinases [10]. Also, the remaining activity at 10 µM on 382 unique human kinases [1] is 113%; at 382 unique human kinases [2], 102%; at 382 unique human kinases [3] it was 105%; on 382 unique human kinases [4], 73.8%; at 382 unique human kinases [5] it was 121%; at 382 unique human kinases [6], 93.5%. Moreover, the remaining activity at 10 µM at 382 unique human kinases [7] is 109%; on 382 unique human kinases [8], 110%; at 382 unique human kinases [9] it was 99.7%; on 382 unique human kinases [10], 101%.
As for `CCNC(=O)c1noc(-c2cc(C(C)C)c(O)cc2O)c1-c1ccc(CN2CCOCC2)cc1` [Luminespib], the “% Enzyme Activity (relative to DMSO controls)” value is given as 24.59% on 382 unique human kinases [11]; 97.25% at 382 unique human kinases [12]; 26.15% at 382 unique human kinases [13]; 106.19% on 382 unique human kinases [14]; 94.11% at 382 unique human kinases [15] (compound 10 uM); 102.87% on 382 unique human kinases [16]. In addition, the “% Enzyme Activity (relative to DMSO controls)” value on 382 unique human kinases [17] came to 95.76%. Also, the remaining activity at 10 µM on 382 unique human kinases [11] is 25.7%; on 382 unique human kinases [12] it was 98.9%; on 382 unique human kinases [13] it was 26.4%; at 382 unique human kinases [14] it was 107%; at 382 unique human kinases [15] (setting [18]), 97.5%; on 382 unique human kinases [16], 105%. Also, on 382 unique human kinases [17], the remaining activity at 10 µM worked out at 96.4%.
